In PubChem BioAssay (NCI):
Values joined by “and” are separate entries in the source; they are usually repeats but may differ in a detail not shown here. Equal entries are not always repeated.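 All cell lines were grown in 96-well plates and treated with compound for 48 hours. Abbreviation: GI50, concentration required for 50% inhibition of growth. At the TGI there is no net growth.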

Assays:
Assay in all cases: inhibition of tumour cell growth, NCI panel, 48 h
UACC-62 melanoma = test system: UACC-62 melanoma
UACC-257 melanoma = test system: UACC-257 melanoma
SK-MEL-2 melanoma = test system: SK-MEL-2 melanoma
SK-MEL-5 melanoma = test system: SK-MEL-5 melanoma
EKVX NSCLC = test system: EKVX NSCLC
NCI/ADR-RES ovarian = test system: NCI/ADR-RES ovarian
SNB-75 CNS = test system: SNB-75 CNS
HL-60(TB) leukemia = test system: HL-60(TB) leukemia

Structure (SMILES) | GI50 (UACC-62 melanoma) | TGI (UACC-62 melanoma) | GI50 (UACC-257 melanoma) | TGI (UACC-257 melanoma) | GI50 (SK-MEL-2 melanoma) [µM] | TGI (SK-MEL-2 melanoma) [µM] | GI50 (SK-MEL-5 melanoma) | TGI (SK-MEL-5 melanoma) | GI50 (EKVX NSCLC) | TGI (EKVX NSCLC) | GI50 (NCI/ADR-RES ovarian) [µM] | TGI (NCI/ADR-RES ovarian) [µM] | GI50 (SNB-75 CNS) | TGI (SNB-75 CNS) | GI50 (HL-60(TB) leukemia) | TGI (HL-60(TB) leukemia)
CCN1C(=O)N(CC)C2C1NN=c1s/c(=C\c3ccc(Br)cc3)c(=O)n12 (stereo unspecified) | 0.0557 µM | > 100 µM | 0.849 µM | > 100 µM | 4.91 | > 100 | 0.118 µM | 1.84 µM | 0.502 µM | > 100 µM | 0.0626 | > 100 | 0.0808 µM | > 100 µM | 0.107 µM | 1.43 µM
CC1(/C=C/c2ccc(-c3ccccc3)cc2)CCn2cnc3ncnc(c32)N1O (stereo unspecified) | 0.356 µM | 2.27 µM | 0.445 µM | 25.3 µM | 1.42 | 41.2 | 0.324 µM | 2.75 µM | 0.305 µM | > 100 µM | 0.348 | 28.7 | 0.387 µM | 14.5 µM | 0.318 µM | 1.81 µM
COc1ccc(COc2ccc(Cc3cnc(N)nc3N)cc2OC)cc1 | 12 µM | > 25 µM | 8.48 µM | > 25 µM | > 25 | > 25 | 3.43 µM | 7.66 µM | > 16.2 µM | > 25 µM | > 19 | > 25 | 8.09 µM | > 25 µM | > 20.6 µM | > 25 µM
O=C(Nc1ccn(C2CCC(COC(c3ccccc3)(c3ccccc3)c3ccccc3)O2)c(=O)n1)c1ccccc1 (stereo unspecified) |  | 16.7 µM |  | 17.9 µM |  | 8.71 |  | 6.41 µM |  | 14.4 µM |  | 8.73 |  | 8.35 µM |  | 4.7 µM
CC#CC#C/C=C1/C=CC2(CCCCO2)O1 (stereo unspecified) |  | > 100 µM |  | > 100 µM |  | > 100 |  | > 100 µM |  | > 100 µM |  | > 100 |  | > 100 µM |  | 47.4 µM
NS(=O)(=O)c1ccc(NC(=O)Nc2cccc3ccccc23)cc1 |  | 69.4 µM |  | > 100 µM |  | > 100 |  | > 100 µM |  | 80.8 µM |  | > 100 |  | 57.7 µM |  | > 100 µM
Cc1cccc(Nc2ncc(-c3ccccc3)o2)c1 | > 25 µM | > 25 µM | > 25 µM | > 25 µM | > 25 | > 25 | > 25 µM | > 25 µM | > 25 µM | > 25 µM | > 25 | > 25 | > 25 µM | > 25 µM | > 25 µM | > 25 µM
c1ccc(OCC[P+](c2ccccc2)(c2ccccc2)c2ccccc2)cc1 | 0.678 µM | 8.99 µM | 0.425 µM | 5.41 µM | 1.06 | 10.8 | 0.416 µM | 1.56 µM | 0.701 µM | > 40.1 µM | > 66.1 | > 100 | 0.721 µM | 5.99 µM | 0.275 µM | 1.45 µM
N/C(=N/O)NOCCC(N)C(=O)O (stereo unspecified) | > 100 µM | > 100 µM | > 100 µM | > 100 µM | > 100 | > 100 | > 100 µM | > 100 µM | > 100 µM | > 100 µM | > 100 | > 100 | > 100 µM | > 100 µM | > 100 µM | > 100 µM
Cn1cc(-c2[nH]c3cc(NC(=O)[C@H](N)C4CCCCC4)cc4c3c2C=NNC4=O)cn1 | 0.484 µM and 0.704 µM | 18.7 µM and > 10 µM | 4.16 µM and > 6.97 µM | 18.8 µM and > 10 µM | 0.262 | > 10 | 0.696 µM and 0.55 µM | 13.1 µM and > 10 µM | 6.83 µM and 5.99 µM | 21.8 µM and > 10 µM | 9.8 | > 74.4 | 0.339 µM and 0.311 µM | 1.88 µM and 1.84 µM | 0.292 µM and 0.296 µM | 0.775 µM and > 4.21 µM
CC(=O)OCc1cc[c]([Hg][Cl])o1 | 2.59 µM | 11.3 µM | 13.5 µM | 26.8 µM | 16.7 | 32.2 | 4.38 µM | 15.9 µM | 12.4 µM | 28.2 µM | 10.8 | 39.1 | 12.8 µM | 51.4 µM | 2.46 µM | 6.28 µM
Cc1ccccc1N=C(c1ccccc1)C1C(=O)c2ccccc2C1=O | 11.6 µM | 30.7 µM | 18 µM | 96.6 µM | 3.32 | 59.8 | 2.41 µM | 13.3 µM | 22.2 µM | 87.6 µM | 8.73 | 47.3 | 23.4 µM | > 100 µM | 9.49 µM | 32.6 µM
CN1CCN(CCCn2c3c(sc4ncccc43)c(=O)n3nnc(-c4ccccc4)c23)CC1 | 17.6 µM | 33.8 µM | 5.81 µM | 10.5 µM | 21.6 | 39 | 1.65 µM | 3.05 µM | 2.08 µM | 5.58 µM | 1.95 | 4.77 | 9.85 µM | 23.4 µM | 1.48 µM | 3.47 µM
Cn1cc(-c2nc(-c3c[nH]c4ccccc34)cs2)c2cccnc21 | 0.388 µM | > 72.9 µM | 14.2 µM | > 100 µM | 0.353 | 51.8 | 0.255 µM | 16.1 µM | 0.907 µM | > 100 µM | 0.11 | 3.37 | 0.161 µM | 0.779 µM | 0.317 µM | > 72.4 µM
CC(C)Cc1cc(-c2cccn2C)c(C#N)c(=O)[nH]1 | > 100 µM | > 100 µM | > 100 µM | > 100 µM | > 100 | > 100 | > 100 µM | > 100 µM | > 100 µM | > 100 µM | > 100 | > 100 | 40.1 µM | > 100 µM | 45.8 µM | > 100 µM
